Measurements as given in ChEMBL document CHEMBL1201862, “PubChem BioAssay data set” (2004).
Active and inactive are the calls of the source.

How the values were obtained:
[1] = target: T1, Polyadenylate-binding protein 1 (Homo sapiens, UniProt P11940); assay: MLLE binding blockers, Cy5 peptide tracer – biochemical, fluorescence polarization, Cy5-PAM2 peptide, secondary, miRNA deadenylation inhibitor project, dose response (AID 602260); type: functional; details: read-out: IC50_Mean
[2] = target: T1, Polyadenylate-binding protein 1; assay: MLLE domain peptide-binding blockers, IC50 – biochemical, fluorescence polarization, FITC-PAM2 peptide, dose response (AID 602259); type: functional; details: read-out: IC50_Mean
cells = type: functional
[3] = Vero E6 cell cytotoxicity, dose response, cytotoxicity control for non-replicating M. tuberculosis project, secondary assay (AID 492998); type: functional, VeroE6; details: Vero C1008
[4] = THP-1 cell cytotoxicity, dose response, cytotoxicity control for non-replicating M. tuberculosis project (AID 489025); type: functional
[5] = Luminescence Cell-Based Dose Response HTS to Identify Activators of Luciferase Translation or Activity in H4 […] Cells. [Related pubchem assays: 1829 (Project Summary), 1814 (Primary HTS)]; type: functional
Large T antigen = Large T antigen (Simian virus 40, UniProt P03070); type: functional, Betapolyomavirus macacae;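 note: Confirmatory-stage PubChem screen for compounds that inhibit SV40 T antigen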
H4 = assay: Luminescence Cell-Based Dose Response HTS to Identify Activators of 5'UTR Stem-Loop Driven Prion Protein mRNA Translation in H4 Neuroglioblastoma Cells. [Related pubchem assays: 1829 (Project Summary), 1814 (Primary HTS)]; type: functional; details: Homo sapiens
[6] = Luminescence Cell-Based Dose Confirmation HTS to Identify Activators of 5'UTR Stem-Loop Driven Alpha-Synuclein mRNA Translation in H4 Neuroglioblastoma Cells. [Related pubchem assays: 1829 (Project Summary), 1814 (Primary HTS)]; type: functional
[7] = target: T2, Calpain-2 catalytic subunit (Sus scrofa, UniProt P43367); assay: m-calpain protease blockers, concentration series – biochemical, fluorogenic peptide substrate, dose response (AID 1420); type: functional
T2 sequence (P43367 whole entry): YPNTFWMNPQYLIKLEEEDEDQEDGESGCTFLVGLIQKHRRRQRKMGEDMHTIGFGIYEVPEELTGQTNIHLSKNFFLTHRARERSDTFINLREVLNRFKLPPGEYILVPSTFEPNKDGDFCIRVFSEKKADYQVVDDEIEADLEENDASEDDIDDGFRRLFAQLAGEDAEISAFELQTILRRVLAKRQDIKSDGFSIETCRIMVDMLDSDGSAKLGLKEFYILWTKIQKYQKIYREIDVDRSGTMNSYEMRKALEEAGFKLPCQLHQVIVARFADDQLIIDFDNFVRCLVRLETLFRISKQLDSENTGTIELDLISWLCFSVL

[8] = target: Heat shock protein HSP 90-alpha (Homo sapiens, UniProt P07900); type: functional, organism-based
[9] = Luminescence Cell-Based Dose Confirmation HTS to Identify Inhibitors of Platelet Dense Granule Release. [Related pubchem assays: 1663 (Primary HTS), 1678 (Summary of Project)]; type: functional
[10] = target: Luciferin 4-monooxygenase (Photinus pyralis, UniProt P08659); assay: inhibition of purified Photinus pyralis luciferase – biochemical, luminescence, dose response (AID 1891)
Cytochrome P450 2C9 = Cytochrome P450 2C9 (Homo sapiens, UniProt P11712)
[11] = toxicity toward HepG2 liver cells – cell-based, plate reader, cherry-pick, antagonist series, cytotoxicity control, dose response (AID 743416); type: functional
[12] = blockers of bursicon-stimulated LGR2 cAMP reporter – cell-based, HEK293, CRE-luciferase reporter, cherry pick, set 2, dose response (AID 743343); type: functional;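 note: transfected cells were stimulated with diluted bursicon conditioned medium after compound addition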
[13] = blockade of melanocortin 4 receptor signaling – cell-based, plate reader, cherry pick, counter-screen for LGR2 antagonist project, dose response (AID 743444); type: functional;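 note: transfected HEK 293 cells stimulated with alpha-MSH peptide; potency of inhibitors of the alpha-MSH evoked signal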
INS1 = assay: INS-1E survival protection against cytokine death – cell-based, luminescence, retest, dose response (AID 449756); type: functional; details: Rattus norvegicus;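 note: cell death triggered by IL-1 beta plus TNF-alpha plus IFN-gamma mixture; protective hits raise ATP signal compared with cytokine alone wells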
[14] = viability loss in HEK293 cells – cell-based, plate reader, cherry-picked samples, cytotoxicity control, dose response (AID 743446); type: functional
Vero = assay: cells; type: functional; details: Chlorocebus sabaeus
[15] = A549 cell cytotoxicity, dose response, cytotoxicity control, plate reader, cherry-pick, antagonist series (AID 743412); type: functional, cell-based
[16] = HEK-293T viability loss after treatment – luminescence, T-cell screen hits, cytotoxicity control for TCR NF-kB inhibitor project, dose response (AID 489026); type: functional, cell-based;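 note: cells exposed to compound about 14 hours before the viability readout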
[17] = reduction of Shn3 3'UTR-driven luciferase in osteoblasts – cell-based, Clone20 osteoblasts, firefly luciferase, cherry-picked, dose response (AID 624132); type: functional;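 note: firefly luciferase luminescence from reporter carrying the Shn3 3'UTR in osteoblasts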
[18] = viability of uninfected HEp-2 cells – cell-based, HTS, cytotoxicity control for RSV inhibitor project, dose response (AID 2410); type: functional; details: human respiratory syncytial virus
[19] = target: T3, Short transient receptor potential channel 4 (Mus musculus, UniProt Q9QUQ5); assay: block of DAMGO-driven TRPC4 calcium entry – cell-based, HEK293 TRPC4/mu-opioid, Fluo-4 calcium, dose response (AID 434942); type: functional;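 note: potency of inhibitors blocking the TRPC4 calcium response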
T3 sequence (Q9QUQ5 whole entry): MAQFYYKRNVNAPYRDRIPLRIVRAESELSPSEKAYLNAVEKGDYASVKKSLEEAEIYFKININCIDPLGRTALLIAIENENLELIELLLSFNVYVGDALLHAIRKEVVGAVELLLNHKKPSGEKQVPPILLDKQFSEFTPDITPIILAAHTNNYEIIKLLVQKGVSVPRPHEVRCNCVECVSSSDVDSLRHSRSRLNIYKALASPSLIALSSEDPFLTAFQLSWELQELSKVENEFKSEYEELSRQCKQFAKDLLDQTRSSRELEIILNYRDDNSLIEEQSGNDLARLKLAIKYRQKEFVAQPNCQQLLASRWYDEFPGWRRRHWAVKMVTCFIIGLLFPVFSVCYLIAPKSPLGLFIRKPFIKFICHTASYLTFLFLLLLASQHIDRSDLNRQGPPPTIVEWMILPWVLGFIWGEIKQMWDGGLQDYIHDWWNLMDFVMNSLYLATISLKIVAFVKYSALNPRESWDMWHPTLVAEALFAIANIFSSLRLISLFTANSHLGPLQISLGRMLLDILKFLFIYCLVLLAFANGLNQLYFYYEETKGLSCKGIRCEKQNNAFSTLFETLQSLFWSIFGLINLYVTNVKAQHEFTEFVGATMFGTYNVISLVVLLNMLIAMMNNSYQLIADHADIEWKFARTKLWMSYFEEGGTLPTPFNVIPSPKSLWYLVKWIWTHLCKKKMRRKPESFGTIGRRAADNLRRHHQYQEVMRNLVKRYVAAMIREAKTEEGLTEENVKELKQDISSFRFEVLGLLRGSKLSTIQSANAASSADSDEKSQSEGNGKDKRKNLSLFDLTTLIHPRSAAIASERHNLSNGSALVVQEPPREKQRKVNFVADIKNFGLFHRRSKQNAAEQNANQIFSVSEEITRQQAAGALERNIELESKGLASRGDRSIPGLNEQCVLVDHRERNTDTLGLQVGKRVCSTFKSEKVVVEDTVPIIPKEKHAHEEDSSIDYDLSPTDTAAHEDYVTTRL

T1 sequence (P11940 whole entry, the tested form may be a part): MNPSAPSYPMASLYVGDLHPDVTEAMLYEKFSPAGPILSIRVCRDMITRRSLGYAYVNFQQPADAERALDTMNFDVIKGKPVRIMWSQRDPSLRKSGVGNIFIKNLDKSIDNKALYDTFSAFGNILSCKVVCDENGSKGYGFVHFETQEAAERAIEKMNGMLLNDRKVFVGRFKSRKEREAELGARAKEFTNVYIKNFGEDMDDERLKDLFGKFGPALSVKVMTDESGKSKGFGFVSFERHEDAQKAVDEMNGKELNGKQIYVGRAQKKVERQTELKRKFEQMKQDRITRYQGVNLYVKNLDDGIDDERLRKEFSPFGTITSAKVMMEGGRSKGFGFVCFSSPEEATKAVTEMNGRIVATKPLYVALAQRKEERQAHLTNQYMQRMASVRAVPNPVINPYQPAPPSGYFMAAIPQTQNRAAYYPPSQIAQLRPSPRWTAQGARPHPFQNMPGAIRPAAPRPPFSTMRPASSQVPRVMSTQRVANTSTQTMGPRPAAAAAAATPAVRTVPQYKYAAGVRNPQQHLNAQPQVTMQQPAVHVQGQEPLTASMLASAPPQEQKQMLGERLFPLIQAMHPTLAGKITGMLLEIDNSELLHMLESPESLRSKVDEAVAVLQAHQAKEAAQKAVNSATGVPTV
Cytochrome P450 2C9, sequence (P11712 whole entry): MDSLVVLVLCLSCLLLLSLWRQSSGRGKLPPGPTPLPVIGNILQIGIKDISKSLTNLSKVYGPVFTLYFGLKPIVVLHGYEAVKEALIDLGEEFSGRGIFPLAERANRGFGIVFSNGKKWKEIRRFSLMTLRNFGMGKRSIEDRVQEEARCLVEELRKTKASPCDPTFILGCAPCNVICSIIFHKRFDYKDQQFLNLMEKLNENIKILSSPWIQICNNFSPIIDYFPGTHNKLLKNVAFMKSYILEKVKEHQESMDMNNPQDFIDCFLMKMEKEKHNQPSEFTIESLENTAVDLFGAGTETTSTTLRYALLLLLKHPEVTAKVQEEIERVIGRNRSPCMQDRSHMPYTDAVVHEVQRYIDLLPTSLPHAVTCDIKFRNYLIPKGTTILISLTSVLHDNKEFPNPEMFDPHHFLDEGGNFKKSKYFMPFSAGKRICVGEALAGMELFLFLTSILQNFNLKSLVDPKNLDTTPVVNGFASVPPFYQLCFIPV
Large T antigen, sequence (P03070 whole entry): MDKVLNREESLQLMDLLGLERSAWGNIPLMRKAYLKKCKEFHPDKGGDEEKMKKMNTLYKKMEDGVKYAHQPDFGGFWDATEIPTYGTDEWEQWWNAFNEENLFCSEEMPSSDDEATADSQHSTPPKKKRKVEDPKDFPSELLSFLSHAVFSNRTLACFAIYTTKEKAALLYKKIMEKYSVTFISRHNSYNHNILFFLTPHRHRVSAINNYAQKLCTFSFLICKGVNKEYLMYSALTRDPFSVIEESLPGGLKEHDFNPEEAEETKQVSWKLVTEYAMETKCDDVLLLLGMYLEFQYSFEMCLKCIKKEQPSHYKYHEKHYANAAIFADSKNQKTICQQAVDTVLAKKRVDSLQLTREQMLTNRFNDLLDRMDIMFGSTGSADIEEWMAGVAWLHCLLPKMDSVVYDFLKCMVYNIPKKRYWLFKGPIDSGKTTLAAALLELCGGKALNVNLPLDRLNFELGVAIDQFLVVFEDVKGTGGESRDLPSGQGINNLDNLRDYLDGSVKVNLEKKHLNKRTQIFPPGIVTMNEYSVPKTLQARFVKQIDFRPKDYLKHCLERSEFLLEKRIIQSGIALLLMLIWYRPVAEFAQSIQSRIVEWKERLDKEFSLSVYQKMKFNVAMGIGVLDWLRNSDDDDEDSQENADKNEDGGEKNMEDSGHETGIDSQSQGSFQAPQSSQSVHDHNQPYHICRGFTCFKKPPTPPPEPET
Luciferin 4-monooxygenase, sequence (P08659 whole entry): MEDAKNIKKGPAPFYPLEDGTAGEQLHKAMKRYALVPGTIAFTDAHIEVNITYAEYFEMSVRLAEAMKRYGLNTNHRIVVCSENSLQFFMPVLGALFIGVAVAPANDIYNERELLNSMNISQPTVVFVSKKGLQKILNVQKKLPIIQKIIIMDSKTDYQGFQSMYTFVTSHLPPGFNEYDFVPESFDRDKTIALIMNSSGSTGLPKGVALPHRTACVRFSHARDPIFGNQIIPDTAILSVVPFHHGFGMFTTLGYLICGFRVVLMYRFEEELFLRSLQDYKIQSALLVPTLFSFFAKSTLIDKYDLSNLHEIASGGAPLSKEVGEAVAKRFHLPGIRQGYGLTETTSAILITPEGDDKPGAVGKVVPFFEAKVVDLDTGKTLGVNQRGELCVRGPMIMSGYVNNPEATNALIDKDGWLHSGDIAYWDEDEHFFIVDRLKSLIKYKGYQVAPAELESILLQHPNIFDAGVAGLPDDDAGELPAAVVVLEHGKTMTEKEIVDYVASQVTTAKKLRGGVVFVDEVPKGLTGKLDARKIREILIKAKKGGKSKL

Structure (SMILES): O=C(NC(=S)NCCC1=CCCCC1)c1ccccc1Br
- IC50 [1]: > 66 µM (inactive)
- IC50 [2]: > 66 µM (inactive)

Structure (SMILES): CN(Cc1ccccc1)C(=O)c1ccc([N+](=O)[O-])o1
- IC50 (cells): 0.36 µM (active)
- CC50 [3]: 19.4 µM (active)
- CC50 [4]: > 40 µM (active)

Structure (SMILES): c1ccc(-c2ccc3c(c2)NCCN3)cc1
- EC50 [5]: 25 µM (active)
- IC50 (Large T antigen): 7.54 µM (active)
- EC50 (H4): 50.5 µM (active)
- EC50 [6]: 16.3 µM (active)

Structure (SMILES): O=C(NN1C(=O)c2ccccc2NC1c1ccco1)c1ccc([N+](=O)[O-])cc1 (stereo not given)
- IC50 [7]: 10.6 µM (not active)

Structure (SMILES): Cc1cc(C)c2c(N=NN3CCOCC3)[nH]nc2n1
- AC50 [8]: 4.4 µM (active)
- EC50 [9]: > 112 µM (not active)
- EC50 [10]: > 112 µM (not active)

Structure (SMILES): Cc1cc(NC(=O)c2ccccc2Cl)c(C(C)C)cc1O
- AC50 (Cytochrome P450 2C9): inconclusive

Structure (SMILES): Cc1ccc2nc(NC(=O)c3ccccn3)sc2c1
- AC50 [11]: 9.65 µM (active)
- IC50 (cells): 0.63 µM (active)
- AC50 [12]: 0.737 µM (active)
- AC50 [13]: 0.582 µM (active)
- AC50 (INS1): 2.19 µM (active)
- AC50 [14]: 14 µM (active)
- CC50 [3]: 7.23 µM (active)
- CC50 (Vero): 11.3 µM (active)
- CC50 [4]: 10.7 µM (active)
- AC50 [15]: 4.99 µM (active)

Structure (SMILES): COC(=O)c1cn(NC(=O)c2cc([N+](=O)[O-])ccc2F)c(=O)c2ccccc12
- IC50 [16]: > 80 µM (inactive)
- AC50 [17]: 2.85 µM (active)
- CC50 [18]: 3.87 µM (active)

Structure (SMILES): Cc1cccc(N2CCN(C(=O)c3c(-c4ccccc4Cl)noc3C)CC2)c1C
- IC50 [16]: > 80 µM (inactive)

Structure (SMILES): Cc1ccccc1C(=O)NC1CC2CCC(C1)N2Cc1ccccc1 (stereo not given)
- EC50 [19]: 0.188 µM (active)

Structure (SMILES): COc1ccc(/C=N/NC(=O)C2c3ccccc3Oc3ccccc32)c(OC)c1
- IC50 [7]: 10.9 µM (not active)
